Where two headings read alike, the source gives them in different places.
Experiments:
[1] = test system: A375 (Amelanotic Melanoma); assay: Cell viability analysis, skin cancer A375; format: cell-based, human; settings: Homo sapiens, A-375, 72 h
[2] = test system: U-2OS; assay: Cell viability analysis, osteosarcoma U-2OS; format: cell-based, human; settings: Homo sapiens, U2OS, 72 h, read-out: The results of antibiotic drug inhibiting cancer cell lines (cell viability analysis), U2OS
[3] = test system: NIH: OVCAR-3; assay: Cell viability analysis, ovarian cancer NIH: OVCAR-3; format: cell-based, human; settings: Homo sapiens, OVCAR-3, 72 h, read-out: The results of antibiotic drug inhibiting cancer cell lines (cell viability analysis), NIH-OVCAR-3
[4] = test system: TSGH-8301 (Urinary Bladder Carcinoma); assay: Cell viability analysis, bladder cancer TSGH-8301; format: cell-based, human; settings: Homo sapiens, 72 h
[5] = test system: AsPC-1; assay: Cell viability analysis, pancreatic cancer AsPC-1; format: cell-based, human; settings: Homo sapiens, ASPC1, 72 h, read-out: The results of antibiotic drug inhibiting cancer cell lines (cell viability analysis), AsPC-1
[6] = test system: 786-O (Renal adenocarcinoma); assay: Cell viability analysis, renal cancer 786-O; format: cell-based, human; settings: Homo sapiens, 786-0, 72 h, read-out: The results of antibiotic drug inhibiting cancer cell lines (cell viability analysis), 786-O
[7] = test system: A549 (Lung Adenocarcinoma); assay: Cell viability analysis, lung cancer A549; format: cell-based, human; settings: Homo sapiens, A549, 72 h
[8] = test system: HepG2 (Hepatocellular Carcinoma); assay: Cell viability analysis, hepatic cancer HepG2; format: cell-based, human; settings: Homo sapiens, HepG2, 72 h
[9] = test system: PC3 (p53−) (Prostate Adenocarcinoma); assay: Cell viability analysis, prostate cancer PC3; format: cell-based, human; settings: Homo sapiens, 72 h
[10] = test system: HeLa (Cervix Adenocarcinoma); assay: Cell viability analysis, cervical cancer HeLa; format: cell-based, human; settings: Homo sapiens, HeLa, 72 h
[11] = test system: LoVo (Colorectal Adenocarcinoma); assay: Cell viability analysis, colon cancer LoVo; format: cell-based, human; settings: Homo sapiens, LoVo, 72 h
[12] = test system: C-33A (Cervical carcinoma); assay: Cell viability analysis, cervical cancer C-33A; format: cell-based, human; settings: Homo sapiens, C-33-A, 72 h, read-out: The results of antibiotic drug inhibiting cancer cell lines (cell viability analysis), C-33A
[13] = test system: MCF7 (Mammary Gland, Adenocarcinoma); assay: Cell viability analysis, breast cancer MCF7; format: cell-based, human; settings: Homo sapiens, MCF7, 72 h
[14] = test system: Hep3B (hepatocellular carcinoma); assay: Cell viability analysis, hepatic cancer Hep3B; format: cell-based, human; settings: Homo sapiens, Hep3B, 72 h, read-out: The results of antibiotic drug inhibiting cancer cell lines (cell viability analysis), Hep3B
[15] = test system: BCC (basal cell carcinoma); assay: Cell viability analysis, skin cancer BCC; format: cell-based, human; settings: Homo sapiens, 72 h, read-out: The results of antibiotic drug inhibiting cancer cell lines (cell viability analysis), BCC
[16] = test system: MDA-MB-231 (Mammary Gland, Adenocarcinoma); assay: Cell viability analysis, breast cancer MDA-MB-231; format: cell-based, human; settings: Homo sapiens, MDA-MB-231, 72 h, read-out: The results of antibiotic drug inhibiting cancer cell lines (cell viability analysis), MDA-MB231
[17] = test system: HCT116 (p53+) (Colorectal Carcinoma)
[18] = test system: MKN-45 (Gastric Adenocarcinoma); assay: Cell viability analysis, gastric cancer MKN-45; format: cell-based, human; settings: Homo sapiens, MKN-45, 72 h
[19] = test system: TOV-21G; assay: Cell viability analysis, ovarian cancer TOV-21G; format: cell-based, human; settings: Homo sapiens, TOV21G, 72 h, read-out: The results of antibiotic drug inhibiting cancer cell lines (cell viability analysis), TOV-21G
[20] = test system: HI650 (Lung Adenocarcinoma); assay: Cell viability analysis, lung cancer HI650; format: cell-based, human; settings: Homo sapiens, NCI-H1650, 72 h
[21] = test system: SAS (Tongue squamous cell carcinoma); assay: Cell viability analysis, tongue cancer SAS; format: cell-based, human; settings: Homo sapiens, 72 h, read-out: The results of antibiotic drug inhibiting cancer cell lines (cell viability analysis), SAS
[22] = test system: T24; assay: Cell viability analysis, bladder cancer T24; format: cell-based, human; settings: Homo sapiens, T-24, 72 h, read-out: The results of antibiotic drug inhibiting cancer cell lines (cell viability analysis), T24
[23] = test system: AGS (Gastric Adenocarcinoma); assay: Cell viability analysis, gastric cancer AGS; format: cell-based, human; settings: Homo sapiens, 72 h
[24] = test system: BxPC-3; assay: Cell viability analysis, pancreatic cancer BxPC-3; format: cell-based, human; settings: Homo sapiens, BXPC-3, 72 h, read-out: The results of antibiotic drug inhibiting cancer cell lines (cell viability analysis), BxPC-3

Clc1ccc(C(Cn2ccnc2)OCc2ccsc2Cl)c(Cl)c1 (centres unmarked) [Tioconazole]
viability at 10 µM ([1]; read-out: The results of antibiotic drug inhibiting cancer cell lines (cell viability analysis), A375, A375, repeated experiment): 97.8% | viability at 10 µM ([1]; read-out: cell viability (survival rate), A375, drug 10 μM, 72 hours, WST-1, OD450 nm): 60.9% | viability at 10 µM [2]: 92.4% | viability at 10 µM [3]: 92.5% | viability at 10 µM ([4]; read-out: The results of antibiotic drug inhibiting cancer cell lines (cell viability analysis), TSGH-8301, TSGH-8301, repeated experiment): 105% | viability at 10 µM ([4]; read-out: cell viability (survival rate), TSGH, drug 10 μM, 72 hours, WST-1, OD450 nm): 68.1% | viability at 10 µM [5]: 80.1% | viability at 10 µM [6]: 75.6% | viability at 10 µM ([7]; read-out: The results of antibiotic drug inhibiting cancer cell lines (cell viability analysis), A549, A549, repeated experiment): 100% | viability at 10 µM ([7]; read-out: cell viability (survival rate), A549, drug 10 μM, 72 hours, WST-1, OD450 nm): 47.6% | viability at 10 µM ([8]; read-out: The results of antibiotic drug inhibiting cancer cell lines (cell viability analysis), HepG2, HepG2, repeated experiment): 109% | viability at 10 µM ([8]; read-out: cell viability (survival rate), HepG2, drug 10 μM, 72 hours, WST-1, OD450 nm): 100% | viability at 10 µM ([9]; read-out: The results of antibiotic drug inhibiting cancer cell lines (cell viability analysis), PC-3, PC-3, repeated experiment): 104% | viability at 10 µM ([9]; read-out: cell viability (survival rate), PC3, drug 10 μM, 72 hours, WST-1, OD450 nm): 40.7% | viability at 10 µM ([10]; read-out: The results of antibiotic drug inhibiting cancer cell lines (cell viability analysis), HeLa, repeated experiment): 96.9% | viability at 10 µM ([10]; read-out: cell viability (survival rate), HeLa, drug 10 μM, 72 hours, WST-1, OD450 nm): 58.5% | viability at 10 µM ([11]; read-out: The results of antibiotic drug inhibiting cancer cell lines (cell viability analysis), LoVo, repeated experiment): 99.8% | viability at 10 µM ([11]; read-out: cell viability (survival rate), LoVo, drug 10 μM, 72 hours, WST-1, OD450 nm): 83.2% | viability at 10 µM [12]: 114% | viability at 10 µM ([13]; read-out: The results of antibiotic drug inhibiting cancer cell lines (cell viability analysis), MCF-7, MCF-7, repeated experiment): 97.8% | viability at 10 µM ([13]; read-out: cell viability (survival rate), MCF7, drug 10 μM, 72 hours, WST-1, OD450 nm): 48% | viability at 10 µM [14]: 120% | viability at 10 µM [15]: 87.8% | viability at 10 µM [16]: 103% | viability [17]: 103% | viability at 10 µM ([18]; read-out: The results of antibiotic drug inhibiting cancer cell lines (cell viability analysis), MKN-45, MKN-45, repeated experiment): 99.9% | viability at 10 µM ([18]; read-out: cell viability (survival rate), MKN-45, drug 10 μM, 72 hours, WST-1, OD450 nm): 61% | viability at 10 µM [19]: 78.5% | viability at 10 µM ([20]; read-out: The results of antibiotic drug inhibiting cancer cell lines (cell viability analysis), H1650, H1650, repeated experiment): 90.3% | viability at 10 µM ([20]; read-out: cell viability (survival rate), H1650, drug 10 μM, 72 hours, WST-1, OD450 nm): 72.9% | viability at 10 µM [21]: 93.6% | viability at 10 µM [22]: 88.8% | viability at 10 µM ([23]; read-out: The results of antibiotic drug inhibiting cancer cell lines (cell viability analysis), AGS, repeated experiment): 120% | viability at 10 µM ([23]; read-out: cell viability (survival rate), AGS, drug 10 μM, 72 hours, WST-1, OD450 nm): 82.7% | viability at 10 µM [24]: 69.2%

— patent publication US10105357B2, “Indication of antibiotic drugs for preparation of cancer inhibition pharmaceutical composition” (LAUNX BIOMEDICAL CO., LTD., priority 2014, dated 2018)
